In US20240376099A1, “COMPOUNDS AND COMPOSITIONS AS INHIBITORS OF ENDOSOMAL TOLL-LIKE RECEPTORS” (Novartis AG, priority 2016, published 2024):

Each molecule was assayed against T1, TLR8 (Homo sapiens, UniProt Q9NR97) (assay: huPBMC TLR8 Antagonist IL-6 TR-FRET Assay). Conditions: human PBMCs stimulated with ssRNA40 1 μg/ml (DOTAP), 14-16 hrs; IL-6 TR-FRET read-out.
T1 sequence (Q9NR97 27-1041): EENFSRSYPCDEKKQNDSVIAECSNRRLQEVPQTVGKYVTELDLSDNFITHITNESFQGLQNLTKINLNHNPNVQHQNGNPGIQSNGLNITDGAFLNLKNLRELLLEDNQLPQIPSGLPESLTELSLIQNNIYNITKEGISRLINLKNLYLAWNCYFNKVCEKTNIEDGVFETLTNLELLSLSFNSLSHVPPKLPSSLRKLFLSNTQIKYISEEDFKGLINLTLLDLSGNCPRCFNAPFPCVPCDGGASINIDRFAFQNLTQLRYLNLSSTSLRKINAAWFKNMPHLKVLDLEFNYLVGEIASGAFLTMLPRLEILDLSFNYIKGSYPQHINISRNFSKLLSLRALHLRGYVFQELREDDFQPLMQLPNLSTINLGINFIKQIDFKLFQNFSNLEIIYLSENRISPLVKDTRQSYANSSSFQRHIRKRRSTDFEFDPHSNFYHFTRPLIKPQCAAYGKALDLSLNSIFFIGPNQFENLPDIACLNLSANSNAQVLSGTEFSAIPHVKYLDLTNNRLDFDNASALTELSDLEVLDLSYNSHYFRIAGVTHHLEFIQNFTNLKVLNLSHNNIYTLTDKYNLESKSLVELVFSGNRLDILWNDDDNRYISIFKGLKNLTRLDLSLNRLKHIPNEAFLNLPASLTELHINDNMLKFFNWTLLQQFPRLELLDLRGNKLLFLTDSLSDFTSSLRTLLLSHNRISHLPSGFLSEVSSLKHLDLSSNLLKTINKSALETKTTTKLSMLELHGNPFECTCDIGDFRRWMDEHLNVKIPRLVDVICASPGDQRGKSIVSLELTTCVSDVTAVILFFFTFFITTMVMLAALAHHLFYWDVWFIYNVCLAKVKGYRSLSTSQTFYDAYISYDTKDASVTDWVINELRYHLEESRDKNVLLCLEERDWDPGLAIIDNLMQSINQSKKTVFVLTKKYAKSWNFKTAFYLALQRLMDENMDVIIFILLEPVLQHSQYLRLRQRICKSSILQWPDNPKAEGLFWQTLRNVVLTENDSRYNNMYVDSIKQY
Type: cell-based
Design: Fresh blood was collected from normal human donors; endogenous in cells; host or cells: human PBMCs from fresh donor blood
Outline: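 Human PBMCs from fresh donor blood (150,000 cells/well) stimulated 14–16 h at 37 °C with DOTAP-complexed ssRNA40 (final 1 μg/ml for TLR8, 10 μg/mL for TLR7) or ODN2216 (final 0.3 μM, TLR9), 0.25% DMSO, ten-point 1/3 compound dilutions. Supernatant IL-6 read by HTRF (TLR8); IFNα by IFNα2b AlphaLISA (TLR7/TLR9).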

Row | Compound | IC50
1 | Cc1cc(N2CCc3c(c(C)nn3CC34CCC(NC(=O)C5CNCCO5)(CC3)CC4)C2)c2cnn(C)c2n1 (stereo not drawn) [compound 125, N-(4-((5-(1,6-dimethyl-1H-pyrazolo[3,4-b]pyridin-4-yl)-3-methyl-4,5,6,7-tetrahydro-1H-pyrazolo[4,3-c]pyridin-1-yl)methyl)bicyclo[2.2.2]octan-1-yl)morpholine-2-carboxamide] | 43 nM
2 | CCNCCC(=O)NC12CCC(Cn3nc(C)c4c3CCN(c3cc(C)nc5c3cnn5C)C4)(CC1)CC2 [compound 126, N-(4-((5-(1,6-dimethyl-1H-pyrazolo[3,4-b]pyridin-4-yl)-3-methyl-4,5,6,7-tetrahydro-1H-pyrazolo[4,3-c]pyridin-1-yl)methyl)bicyclo[2.2.2]octan-1-yl)-3-(ethylamino)propanamide] | 153 nM
3 | CCNC12CCC(Cn3nc(C)c4c3CCN(c3ccnc(-c5ccccc5)c3)C4)(CC1)CC2 [compound 127, N-ethyl-4-((3-methyl-5-(2-phenylpyridin-4-yl)-4,5,6,7-tetrahydro-1H-pyrazolo[4,3-c]pyridin-1-yl)methyl)bicyclo[2.2.2]octan-1-amine] | 1430 nM
4 | Cc1cc(N2CCc3c(c(C)nn3CC34CCC(N5CCOC[C@@H]5C)(CC3)CC4)C2)c2cnn(C)c2n1 [compound 128, (S)-4-(4-((5-(1,6-dimethyl-1H-pyrazolo[3,4-b]pyridin-4-yl)-3-methyl-4,5,6,7-tetrahydro-1H-pyrazolo[4,3-c]pyridin-1-yl)methyl)bicyclo[2.2.2]octan-1-yl)-3-methylmorpholine] | 13 nM
5 | Cc1cc(N2CCc3c(c(C)nn3CC34CCC(N5CCOC[C@H]5C)(CC3)CC4)C2)c2cnn(C)c2n1 [compound 129, (R)-4-(4-((5-(1,6-dimethyl-1H-pyrazolo[3,4-b]pyridin-4-yl)-3-methyl-4,5,6,7-tetrahydro-1H-pyrazolo[4,3-c]pyridin-1-yl)methyl)bicyclo[2.2.2]octan-1-yl)-3-methylmorpholine] | 12 nM
6 | Cc1cc(N2CCc3c(c(C)nn3CC34CCC(NC(=O)C5CNC5)(CC3)CC4)C2)c2cnn(C)c2n1 [compound 131, N-(4-((5-(1,6-dimethyl-1H-pyrazolo[3,4-b]pyridin-4-yl)-3-methyl-4,5,6,7-tetrahydro-1H-pyrazolo[4,3-c]pyridin-1-yl)methyl)bicyclo[2.2.2]octan-1-yl)azetidine-3-carboxamide] | 361 nM
7 | [2H]C([2H])([2H])N(CC(=O)NC12CCC(Cn3nc(C)c4c3CCN(c3cc(C)nc5c3cnn5C)C4)(CC1)CC2)C([2H])([2H])[2H] [compound 134, 2-(bis(trideuteromethyl)amino)-N-(4-((5-(1,6-dimethyl-1H-pyrazolo[3,4-b]pyridin-4-yl)-3-methyl-4,5,6,7-tetrahydro-1H-pyrazolo[4,3-c]pyridin-1-yl)methyl)bicyclo[2.2.2]octan-1-yl)acetamide] | 93 nM

Other lines, results leading:

Row | IC50 | Compound
8 | 2830 nM | COCCNC12CCC(Cn3nc(C)c4c3CCN(c3ccnc(-c5ccccc5)c3)C4)(CC1)CC2 [compound 130, N-(2-methoxyethyl)-4-((3-methyl-5-(2-phenylpyridin-4-yl)-4,5,6,7-tetrahydro-1H-pyrazolo[4,3-c]pyridin-1-yl)methyl)bicyclo[2.2.2]octan-1-amine]
9 | 8 nM | CCN(C)CC(=O)NC12CCC(Cn3nc(C)c4c3CCN(c3cc(C)nc5c3cnn5C)C4)(CC1)CC2 [compound 132, N-(4-((5-(1,6-dimethyl-1H-pyrazolo[3,4-b]pyridin-4-yl)-3-methyl-4,5,6,7-tetrahydro-1H-pyrazolo[4,3-c]pyridin-1-yl)methyl)bicyclo[2.2.2]octan-1-yl)-2-(ethyl(methyl)amino)acetamide]
10 | 68 nM | Cc1cc(N2CCc3c(c(C)nn3CC34CCC(NCC5(CO)COC5)(CC3)CC4)C2)c2cnn(C)c2n1 [compound 137, (3-(((4-((5-(1,6-dimethyl-1H-pyrazolo[3,4-b]pyridin-4-yl)-3-methyl-4,5,6,7-tetrahydro-1H-pyrazolo[4,3-c]pyridin-1-yl)methyl)bicyclo[2.2.2]octan-1-yl)amino)methyl)oxetan-3-yl)methanol]
11 | 2290 nM | CCn1ncc2c(N3CCc4c(c(C)nn4CC45CCC(NC(=O)[C@@H]6COCCN6)(CC4)CC5)C3)cc(C)nc21 [compound 141, (S)-N-(4-((5-(1-ethyl-6-methyl-1H-pyrazolo[3,4-b]pyridin-4-yl)-3-methyl-4,5,6,7-tetrahydro-1H-pyrazolo[4,3-c]pyridin-1-yl)methyl)bicyclo[2.2.2]octan-1-yl)morpholine-3-carboxamide]
12 | 932 nM | CNCCC(=O)NC12CCC(Cn3nc(C)c4c3CCN(c3cc(C)nc5c3cnn5C)C4)(CC1)CC2 [compound 142, N-(4-((5-(1,6-dimethyl-1H-pyrazolo[3,4-b]pyridin-4-yl)-3-methyl-4,5,6,7-tetrahydro-1H-pyrazolo[4,3-c]pyridin-1-yl)methyl)bicyclo[2.2.2]octan-1-yl)-3-(methylamino)propanamide]
13 | 687 nM | Cc1cc(N2CCc3c(c(C)nn3CC34CCC(NC5CCC5)(CC3)CO4)C2)c2cnn(C)c2n1 [compound 143, N-cyclobutyl-1-((5-(1,6-dimethyl-1H-pyrazolo[3,4-b]pyridin-4-yl)-3-methyl-4,5,6,7-tetrahydro-1H-pyrazolo[4,3-c]pyridin-1-yl)methyl)-2-oxabicyclo[2.2.2]octan-4-amine]
14 | 105 nM | Cc1nn(CC23CCC(NC4CCC4)(CC2)CC3)c2c1CN(c1ccnc(-c3ccccc3)c1)CC2 [compound 144, N-cyclobutyl-4-((3-methyl-5-(2-phenylpyridin-4-yl)-4,5,6,7-tetrahydro-1H-pyrazolo[4,3-c]pyridin-1-yl)methyl)bicyclo[2.2.2]octan-1-amine]
15 | > 10000 nM | Cc1cc(N2CCc3c(c(C)nn3CC34CCC(NC(=O)OC(C)(C)C)(CC3)C4)C2)c2cnn(C)c2n1 [compound 148, tert-butyl (4-((5-(1,6-dimethyl-1H-pyrazolo[3,4-b]pyridin-4-yl)-3-methyl-4,5,6,7-tetrahydro-1H-pyrazolo[4,3-c]pyridin-1-yl)methyl)bicyclo[2.2.1]heptan-1-yl)carbamate]
